Consider two compounds from patent US20170190705A1, “Compositions and Methods for Inhibiting BMP” (THE BRIGHAM AND WOMAN'S HOSPITAL, INC., priority 2014, published 2017).

Structures are written as SMILES.

Common to all, as to assay type: biochemical
Assay [1] concerns the target T1, DCAMKL2 (Homo sapiens, UniProt Q8N568).
T1 sequence (Q8N568 1-766): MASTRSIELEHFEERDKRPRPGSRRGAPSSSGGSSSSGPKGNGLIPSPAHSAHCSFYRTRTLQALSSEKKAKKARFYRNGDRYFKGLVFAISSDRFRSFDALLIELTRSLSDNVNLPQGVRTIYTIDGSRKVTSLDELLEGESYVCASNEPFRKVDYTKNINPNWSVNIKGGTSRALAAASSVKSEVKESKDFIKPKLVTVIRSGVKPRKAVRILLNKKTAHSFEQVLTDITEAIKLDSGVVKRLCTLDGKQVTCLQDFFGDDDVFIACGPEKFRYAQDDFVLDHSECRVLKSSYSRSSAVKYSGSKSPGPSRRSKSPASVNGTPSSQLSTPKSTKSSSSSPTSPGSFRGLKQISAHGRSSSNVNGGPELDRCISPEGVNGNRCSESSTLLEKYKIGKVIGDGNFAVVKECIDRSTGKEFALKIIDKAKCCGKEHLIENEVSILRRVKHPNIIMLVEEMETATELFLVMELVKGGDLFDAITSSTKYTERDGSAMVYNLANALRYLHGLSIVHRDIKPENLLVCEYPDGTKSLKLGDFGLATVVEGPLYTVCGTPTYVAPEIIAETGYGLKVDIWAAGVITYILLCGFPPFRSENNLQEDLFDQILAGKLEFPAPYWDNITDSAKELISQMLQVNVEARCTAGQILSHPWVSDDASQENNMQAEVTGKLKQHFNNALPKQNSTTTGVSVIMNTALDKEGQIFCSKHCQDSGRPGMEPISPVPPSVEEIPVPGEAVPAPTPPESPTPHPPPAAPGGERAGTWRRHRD
Put plainly: Kinome profiling DCAMKL2. The settings on record: read-out: Inhibitory activity DCAMKL2; for inhibition at 0.1 µM: 100 nM. As for the experimental part:
(§1) . The kinome-wide selectivity was determined following the methods previously reported by Mohedas et al., ACS Chem Biol 2013, 8, 1291-1302 and Sanvitale et al., PLoS One 2013, 8, e62721.

Assay [2] deals with T2, HIPK4 (Homo sapiens, UniProt Q8NE63).
T2 sequence (Q8NE63 1-616): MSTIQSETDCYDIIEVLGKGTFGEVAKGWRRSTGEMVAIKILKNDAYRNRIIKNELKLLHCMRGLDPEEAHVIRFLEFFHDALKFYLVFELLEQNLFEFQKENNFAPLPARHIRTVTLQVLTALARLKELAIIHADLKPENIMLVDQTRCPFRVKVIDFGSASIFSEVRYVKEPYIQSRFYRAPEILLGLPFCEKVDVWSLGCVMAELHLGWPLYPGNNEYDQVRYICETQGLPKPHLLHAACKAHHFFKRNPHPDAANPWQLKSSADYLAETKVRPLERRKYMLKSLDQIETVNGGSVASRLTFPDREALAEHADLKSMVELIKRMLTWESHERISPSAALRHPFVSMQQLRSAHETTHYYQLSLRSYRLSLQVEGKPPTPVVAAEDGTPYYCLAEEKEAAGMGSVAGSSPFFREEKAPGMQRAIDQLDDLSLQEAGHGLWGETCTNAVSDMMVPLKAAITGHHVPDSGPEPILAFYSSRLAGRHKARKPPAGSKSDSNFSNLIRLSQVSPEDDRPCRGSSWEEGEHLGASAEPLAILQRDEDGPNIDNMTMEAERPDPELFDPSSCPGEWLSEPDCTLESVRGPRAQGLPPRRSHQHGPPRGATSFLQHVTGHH
Put plainly: Kinome profiling HIPK4. The note with it: read-out: Inhibitory activity HIPK4; for inhibition at 0.1 µM: 100 nM. As for the experimental part: as §1

In assay [3] the target is PAK6 (Homo sapiens, UniProt Q9NQU5). Put plainly: Kinome profiling PAK6. The note with it: read-out: Inhibitory activity PAK6; for inhibition at 0.1 µM: 100 nM. As for the experimental part:
as §1

The target of assay [4] is T3, TNK1 (Homo sapiens, UniProt Q13470).
T3 sequence (Q13470 1-666): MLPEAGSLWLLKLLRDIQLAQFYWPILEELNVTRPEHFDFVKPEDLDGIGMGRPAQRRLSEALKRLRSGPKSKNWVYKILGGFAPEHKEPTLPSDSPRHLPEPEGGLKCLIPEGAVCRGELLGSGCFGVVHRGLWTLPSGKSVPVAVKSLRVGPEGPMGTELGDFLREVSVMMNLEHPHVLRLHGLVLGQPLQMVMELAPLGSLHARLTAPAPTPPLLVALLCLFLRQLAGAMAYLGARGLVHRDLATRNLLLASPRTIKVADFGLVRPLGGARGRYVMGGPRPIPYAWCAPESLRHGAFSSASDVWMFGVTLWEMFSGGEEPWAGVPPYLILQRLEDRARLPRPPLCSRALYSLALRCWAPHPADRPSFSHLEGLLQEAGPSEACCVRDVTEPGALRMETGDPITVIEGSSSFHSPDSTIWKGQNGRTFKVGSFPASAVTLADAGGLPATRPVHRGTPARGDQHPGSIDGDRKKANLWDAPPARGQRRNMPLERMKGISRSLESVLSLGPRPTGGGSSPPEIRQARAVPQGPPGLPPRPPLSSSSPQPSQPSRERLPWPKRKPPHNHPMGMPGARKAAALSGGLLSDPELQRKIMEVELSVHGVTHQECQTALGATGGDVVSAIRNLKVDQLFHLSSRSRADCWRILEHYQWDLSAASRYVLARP
Kind of assay: Kinome profiling TNK1. The settings on record: read-out: Inhibitory activity TNK1; for inhibition at 0.1 µM: 100 nM. As for the experimental part: as §1

In assay [5] the target is FES (Homo sapiens, UniProt P07332). Kind of assay: Kinome profiling FES. The note with it: read-out: Inhibitory activity FES; for inhibition at 0.1 µM: 100 nM. As to the method: as §1
Assay [6] has as its target LYNA (Homo sapiens, UniProt P07948). Kind of assay: Kinome profiling LYNA. The settings on record: read-out: Inhibitory activity LYNA; for inhibition at 0.1 µM: 100 nM. As to the method:
as §1

The target in assay [7] is YES (Homo sapiens, UniProt P07947). Put plainly: Kinome profiling YES. The note with it: read-out: Inhibitory activity YES; for inhibition at 0.1 µM: 100 nM. As to the method: as §1
In assay [8] the target is FGR (Homo sapiens, UniProt P09769). Put plainly: Kinome profiling FGR. The settings on record: read-out: Inhibitory activity FGR; for inhibition at 0.1 µM: 100 nM. As to the method: as §1
Sequence of FGR (P09769 whole entry): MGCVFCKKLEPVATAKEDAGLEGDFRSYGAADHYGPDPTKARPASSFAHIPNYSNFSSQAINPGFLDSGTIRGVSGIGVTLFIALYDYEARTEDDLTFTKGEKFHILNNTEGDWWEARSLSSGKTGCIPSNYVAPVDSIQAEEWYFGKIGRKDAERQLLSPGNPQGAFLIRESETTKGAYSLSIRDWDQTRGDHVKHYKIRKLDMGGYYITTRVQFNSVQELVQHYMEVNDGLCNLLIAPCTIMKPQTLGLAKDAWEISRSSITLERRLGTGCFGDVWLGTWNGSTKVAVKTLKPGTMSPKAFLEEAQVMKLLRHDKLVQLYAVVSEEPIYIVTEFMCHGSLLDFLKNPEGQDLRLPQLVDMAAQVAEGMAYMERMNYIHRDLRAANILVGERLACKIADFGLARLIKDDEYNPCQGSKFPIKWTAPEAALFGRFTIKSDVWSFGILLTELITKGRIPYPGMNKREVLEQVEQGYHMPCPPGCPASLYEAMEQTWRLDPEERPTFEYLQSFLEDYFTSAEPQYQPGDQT

Sequence of LYNA (P07948 whole entry): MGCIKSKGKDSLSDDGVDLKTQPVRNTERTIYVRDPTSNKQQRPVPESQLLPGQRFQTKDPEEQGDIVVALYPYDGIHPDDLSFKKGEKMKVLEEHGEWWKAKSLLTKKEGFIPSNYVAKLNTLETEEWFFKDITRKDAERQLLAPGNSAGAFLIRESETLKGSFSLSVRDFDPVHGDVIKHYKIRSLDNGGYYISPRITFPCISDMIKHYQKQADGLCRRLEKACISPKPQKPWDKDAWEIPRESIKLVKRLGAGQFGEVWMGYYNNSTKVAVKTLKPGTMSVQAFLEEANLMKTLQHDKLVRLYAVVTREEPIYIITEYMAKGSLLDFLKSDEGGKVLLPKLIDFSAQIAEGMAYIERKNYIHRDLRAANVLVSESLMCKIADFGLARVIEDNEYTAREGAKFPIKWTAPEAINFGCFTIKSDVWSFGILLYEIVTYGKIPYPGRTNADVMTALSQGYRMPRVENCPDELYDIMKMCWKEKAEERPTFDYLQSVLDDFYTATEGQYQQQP
Sequence of FES (P07332 whole entry): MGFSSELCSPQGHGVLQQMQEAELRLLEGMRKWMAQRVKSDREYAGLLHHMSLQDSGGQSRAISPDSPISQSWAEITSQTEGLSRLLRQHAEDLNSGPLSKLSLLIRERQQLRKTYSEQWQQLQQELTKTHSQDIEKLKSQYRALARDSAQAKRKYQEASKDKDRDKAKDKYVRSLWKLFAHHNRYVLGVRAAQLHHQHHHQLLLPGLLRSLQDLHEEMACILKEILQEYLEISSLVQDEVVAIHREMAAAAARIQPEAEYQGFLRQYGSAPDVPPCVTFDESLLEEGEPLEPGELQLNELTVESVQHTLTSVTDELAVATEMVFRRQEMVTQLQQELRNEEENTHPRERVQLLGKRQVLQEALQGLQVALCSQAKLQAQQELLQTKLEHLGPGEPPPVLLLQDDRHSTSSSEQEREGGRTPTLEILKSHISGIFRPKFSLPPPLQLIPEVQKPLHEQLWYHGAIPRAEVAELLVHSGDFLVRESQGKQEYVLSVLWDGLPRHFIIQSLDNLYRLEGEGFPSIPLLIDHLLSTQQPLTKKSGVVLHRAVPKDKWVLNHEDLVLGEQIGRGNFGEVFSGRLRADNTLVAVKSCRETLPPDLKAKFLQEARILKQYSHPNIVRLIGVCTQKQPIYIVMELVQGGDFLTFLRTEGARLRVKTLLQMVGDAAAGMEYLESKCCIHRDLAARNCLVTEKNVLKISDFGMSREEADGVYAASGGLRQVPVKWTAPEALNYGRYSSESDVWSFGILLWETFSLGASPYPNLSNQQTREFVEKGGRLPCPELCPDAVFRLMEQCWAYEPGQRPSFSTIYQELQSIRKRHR
Sequence of PAK6 (Q9NQU5 whole entry): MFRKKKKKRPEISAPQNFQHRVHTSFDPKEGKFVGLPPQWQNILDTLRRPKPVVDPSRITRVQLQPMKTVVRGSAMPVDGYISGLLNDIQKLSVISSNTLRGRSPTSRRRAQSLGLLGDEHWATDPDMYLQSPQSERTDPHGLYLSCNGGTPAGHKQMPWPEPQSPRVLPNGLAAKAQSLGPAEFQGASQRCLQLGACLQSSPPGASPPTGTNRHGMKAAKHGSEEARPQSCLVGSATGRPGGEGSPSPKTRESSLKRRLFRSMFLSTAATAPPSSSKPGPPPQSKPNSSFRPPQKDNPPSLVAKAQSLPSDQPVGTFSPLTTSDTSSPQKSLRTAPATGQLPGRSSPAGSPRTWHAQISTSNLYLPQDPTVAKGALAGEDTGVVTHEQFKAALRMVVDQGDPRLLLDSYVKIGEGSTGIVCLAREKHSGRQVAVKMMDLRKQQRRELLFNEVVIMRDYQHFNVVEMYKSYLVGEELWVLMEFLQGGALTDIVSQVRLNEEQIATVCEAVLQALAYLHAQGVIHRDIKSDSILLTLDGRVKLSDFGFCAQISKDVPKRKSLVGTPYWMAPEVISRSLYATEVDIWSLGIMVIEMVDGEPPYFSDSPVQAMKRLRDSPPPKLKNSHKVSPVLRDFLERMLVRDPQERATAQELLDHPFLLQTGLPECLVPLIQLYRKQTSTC
Sequence of YES (P07947 whole entry): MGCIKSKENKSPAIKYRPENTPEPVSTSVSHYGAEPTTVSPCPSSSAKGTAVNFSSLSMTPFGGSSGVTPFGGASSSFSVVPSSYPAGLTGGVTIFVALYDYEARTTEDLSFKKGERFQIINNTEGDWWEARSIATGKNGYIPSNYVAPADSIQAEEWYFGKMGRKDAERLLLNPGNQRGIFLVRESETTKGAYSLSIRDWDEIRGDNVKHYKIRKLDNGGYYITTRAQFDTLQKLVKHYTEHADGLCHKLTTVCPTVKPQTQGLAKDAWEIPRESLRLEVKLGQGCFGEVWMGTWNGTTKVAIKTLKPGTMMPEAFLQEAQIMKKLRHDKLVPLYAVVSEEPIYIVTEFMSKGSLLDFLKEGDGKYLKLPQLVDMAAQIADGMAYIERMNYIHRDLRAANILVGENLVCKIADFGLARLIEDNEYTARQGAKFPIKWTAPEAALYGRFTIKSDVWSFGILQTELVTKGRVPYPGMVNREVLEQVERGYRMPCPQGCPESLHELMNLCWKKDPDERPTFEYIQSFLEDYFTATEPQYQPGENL

On to `COc1cc(-c2cc(-c3ccc(N4CCNCC4)cc3)cnc2N)cc(OC)c1OC` [Compound 15, 5-(4-(piperazin-1-yl)phenyl)-3-(3,4,5-trimethoxyphenyl)pyridin-2-amine], for which the inhibition at 0.1 µM in assay [1] is -1%; in assay [2], 1%; in assay [3], 5%; in assay [4] it was 2%; in assay [5] it was 3%; in assay [6] it was 41%. The inhibition at 0.1 µM worked out at 41% in assay [7] and 36% in assay [8]. The inhibition at 1 µM is 3% in assay [1]; 2% in assay [2]; 3% in assay [3]; 16% in assay [4]; 4% in assay [5]; 84% in assay [6]. In addition, the inhibition at 1 µM in assay [7] was determined as 82%; in assay [8], 76%.

With `COc1cc(-c2cc(-c3ccc(N4CCNCC4)cc3)cnc2C)cc(OC)c1OC` [Compound 10, 1-(4-(6-methyl-5-(3,4,5-trimethoxyphenyl)pyridin-3-yl)phenyl)piperazine], the inhibition at 0.1 µM in assay [1] came out at 1%; in assay [2], 5%; in assay [3], 1%; in assay [4], 5%; in assay [5], 7%; in assay [6] it was 3%. Also, the values for the inhibition at 0.1 µM in assay [7] and in assay [8] were 11% and 9%, respectively. Besides, the inhibition at 1 µM in assay [1] came to 0%; in assay [2] it was 8%; in assay [3], 5%; in assay [4], 2%; in assay [5], 9%; in assay [6], 29%. The inhibition at 1 µM came to 47% in assay [7] and 36% in assay [8].
